Consider 12 compounds from ChEMBL document CHEMBL5226301, “Toward Raman Subcellular Imaging of Endothelial Dysfunction” (J Med Chem, 2021).

SMILES strings stand for the structures.

This data set in a line: Dissociation constant, pKa of compound. The format is physicochemical.
In general, pKa refers to the negative logarithm of the acid dissociation constant. A higher pKa goes with a group that holds its proton tightly. As for `Nc1ccc(C#CC#Cc2ccccc2)cc1`, the pKa amounted to 2.7.
The figure for `Nc1cc(C#CC#Cc2ccccc2)ccn1` is 5.
The figure for `Oc1ccc(C#CC#Cc2ccccc2)c(F)c1` is 8.5.
The figure for `C(C#Cc1c[nH]cn1)#Cc1ccccc1` is 4.
Turning to `C(C#Cc1ccncc1)#Cc1ccccc1`, the pKa was found to be 3.3.
The value for `Oc1ccc(C#CC#Cc2ccccc2)cc1F` was 7.9; that for `Nc1ccc(C#CC#Cc2ccccc2)c(O)c1` was 2.7.
Compound `Nc1cccc(C#CC#Cc2ccccc2)c1` showed a pKa of 3.5.
The figure for `Nc1ccc(C#CC#Cc2ccc(O)cc2)cc1` is 2.8.
The value for `O=S(=O)(Nc1ccc(C#CC#Cc2ccccc2)cc1)C(F)(F)F` was 4.1; that for `Oc1c(F)cc(C#CC#Cc2ccccc2)cc1F` was 6.2; that for `Oc1ccc(C#CC#Cc2ccccc2)cc1` was 9.5.
